# Measurements taken from patent EP0594540B1, “Antiretroviral acyl compounds” (Novartis AG, priority 1992, dated 1994).
# Experiment: Blood concentration in mice after oral administration (reversed-phase HPLC)
# Assay type: in vivo, Mäusen
# Conditions: oral gavage
# Procedure: Die zu untersuchenden Verbindungen der Formel I oder als Kontrolle die Vergleichsverbindung der Formel II werden in Dimethylsulfoxid (DMSO) in einer Konzentration von 240 mg/ml gelöst. Die resultierenden Lösungen werden mit 20% (w/v) Hydroxypropyl-β-cyclodextrin (HPβCD) verdünnt, um eine Konzentration der Testsubstanz von 12 mg/ml zu erhalten. Diese Lösung wird Mäusen durch künstliche Sonderernährung in einer Dosis von 120 mg/kg verabreicht. 30, 60, 90 und 120 min nach der Verabreichung werden die Tiere getötet und Blut entnommen. Pro Zeitpunkt werden drei bis vier Tiere untersucht. Das Blut wird heparinisiert und für die Analyse durch eine der folgenden beiden Methoden vorbereitet: Nach der ersten Methode wird Vollblut deproteinisiert durch Mischen eines Volumenteils Blut mit einem Volumenteil Acetonitril; nach Zentrifugation wird der Überstand durch Reversed-Phase-HPLC untersucht. Nach der zweiten Methode wird ein interner Standard zum heparinisierten Blut in einer Endkonzentration von 4 µM zugegeben. Das Blut wird zentrifugiert. 0,25 ml Plasma werden abgenommen und mit einem gleichen Volumen Acetonitril deproteinisiert. Nach Zentrifugation wird der Überstand unter Vakuum eingetrocknet und der Rückstand in 20 µl 3M NaCl-Lösung und 100 µl 0,05M Phthalat-Puffer mit einem pH von 3,0 suspendiert. Die Suspension wird erst mit 1 ml, dann mit 0,2 ml Diisopropylether extrahiert. […]
structure (smiles),measurement,setting,value
"CC(=O)O[C@H](CN1C[C@H]2CCCC[C@H]2C[C@H]1C(=O)NC(C)(C)C)[C@H](Cc1ccccc1)NC(=O)[C@H](CC(N)=O)NC(=O)c1ccc2ccccc2n1 [N-tert.-Butyl-decahydro-2-[2(R)-acetyloxy-4-phenyl-3(S)-[[N-(2-chinolylcarbonyl)-L-asparaginyl]amino]butyl]-(4aS,8aS)-isochinolin-3(S)-carboxamid]",Konzentration der aktiven Komponente der Formel II im Blut,"120 mg/kg, 30, 60, 90 and 120 min after dosing, compared with administration of the compound of formula II in unesterified form",mehr als dreimal so hoch
same,Absorption der Verbindung der Formel I,"120 mg/kg, compared with absorption of the compound of formula II",mehr als viermal so hoch
